From US20240336573A1, “COMPOUND FOR THE TREATMENT AND PROPHYLAXIS OF INFECTIOUS DISEASES” (Eberhard Karls Universität Tübingen Medizinische Fakultät, priority 2021, published 2024)
Where two headings read alike, the source gives them in different places.

Experiments:
[1] = molecular target: T1, SurA (Escherichia coli, UniProt P0ABZ6); test: Microscale thermophoresis at the ELF (O1); assay type: binding, E. coli; design: key to MST score: 1 = binder; 6 = non-binder; conditions: for MST score: score 1-6
Experimental: (§1) His-tagged SurA was labeled with the Monolith His-Tag Labeling Kit RED-tris-NTA (Nanotemper) according to the manufacturer's instructions.
Microscale thermophoresis measurements at the ELF were performed as follows. Compounds were tested in 8-point curves at a top starting concentration of 100-0.39 μM. […] 12-point dose responses of reference compound were also set up and tested between runs. Final measurement conditions were 40 mM HEPES pH 7.4, 0.1% Pluronic-F127, 50 nM SurA with Monolith settings—40% excitation and 60% MST power. MST data (capillary scan and shape, initial fluorescence and MST traces) were analyzed and a score was given to each compound.

[2] = molecular target: T1, SurA; test: Microscale thermophoresis (Tuebingen, Monolith NT.115); assay type: binding, E. coli; conditions: for MST score (Re-evaluation Tuebingen): re-evaluation of QHL compound remainders
Experimental: as §1
Microscale thermophoresis measurements were performed in 40 mM HEPES pH 7.4, 0.05% Tween-20 at 25° C. with a Monolith NT.115 (NanoTemper) in standard capillaries.

[3] = molecular target: T1, SurA; test: Luciferase-based SurA activity assay (primary assay, in-house); assay type: biochemical, E. coli; design: key to primary assay SurA: SurA inhibition = +; no SurA inhibition = 0; conditions: for primary assay SurA: shelf derivatives evaluation
Source text: The biological function of SurA is to bind and to keep outer membrane proteins that have reached the periplasm in an unfolded but folding-competent state. The inventors' assay is based on this interaction and uses firefly Luciferase (fLuc) as a non-native substrate. […] This is exploited in the assay (FIG. 3). The loss of tertiary structure of fLuc leads to the exposure of binding sites for SurA. It is known that SurA binds selectively to a special group of substrates. These substrates have in common the specific patterns of hydrophobic amino acids that are highly enriched in the beta strands of integral outer membrane proteins. These motifs are present in OMPs of all Gram-negative bacteria and in fLuc as well. Upon mild heat treatment of fLuc and its subsequent partial unfolding, fLuc is accepted as a substrate by SurA. Of note, these intermediates served as reporter substrates to determine the activity of a […] folding chaperone. […] This interaction remains stable upon temperature reduction. Next, the temperature of the assay is reduced to room temperature and luciferase activity is subsequently measured by addition of Luciferin and ATP. In conditions without SurA, fLuc will refold into its active conformation resulting in a luminescence signal.
In short, the Luciferase based SurA activity assay was performed in SurA Activity Assay Buffer (40 mM HEPES pH 7.4, 20 mM MgSO4, 0.5 g/I BSA). SurA aliquots were thawn at RT, activated by mild heat treatment and cooled down to RT for 10 min. […] Solution A containing 10 mM ATP as well as 0.3 mM Luciferin (Promega Beetle Luciferin, Potassium Salt) in water was prepared. Luciferase working solution was prepared by diluting 1 ml Luciferase working stock (100 nM) with 9 ml assay buffer. 33 μl of the protein solution were added to every 2nd row of a well of a 384-well PS, white, flat bottom plate. […] Subsequently, 2 μl of compound in DMSO were added in quadruplicates (4 wells each of protein solution and buffer controls). These compound solutions could contain either various compounds or different dilutions of the same compound allowing screening inhibitor activity in a dose dependent manner. After compound addition, plates were incubated 15 min at RT. After this incubation, 5 μl of Luciferase working solution were added to each well. Next, the plates were incubated 25 min at 38° C. to partially unfold the Luciferase. Subsequently, the assay plate was cooled for 5 min at 4° C. followed by 10 min incubation at RT prior to luminescence measurement. Luminescence was measured in a TECAN infinite M200 pro plate reader for each well individually after injection of 10 μl Solution A.

[4] = molecular target: T1, SurA; test: nanoDSF thermal shift assay (Prometheus); assay type: binding, E. coli; design: key to nanoDSF pH 5 Ti#1 / nanoDSF pH 5 Ti#2 / nanoDSF pH 7.4 Ti#1 / nanoDSF pH 7.4 Ti#2: An increase of the inflection points in the nanoDSF experiments is indicated by (+); a decrease by (−); no changes with (none); ambiguity with a question mark (?); conditions: for nanoDSF pH 7.4 Ti#1 / nanoDSF pH 7.4 Ti#2: 40 mM HEPES pH 7.4, 150 NaCl; for nanoDSF pH 5 Ti#1 / nanoDSF pH 5 Ti#2: 50 mM HAc pH 5; for Thermal stability of SurA as detected by nanoDSF: resynthesized compounds
Experimental: To this end, 5 μl of a 2 mM compound solution in DMSO were mixed with 95 μl of a 20 μM SurA solution. Technical triplicate measurements were performed on a Prometheus system (NanoTemper).

[5] = molecular target: luciferase (Photinus pyralis, UniProt P08659); test: Primary assay buffer control: interference with Luciferase per se; assay type: biochemical, firefly; design: key: no influence on Luc activity = 0; enhances Luc activity = +; reduces Luc activity = −
Experimental: In short, the Luciferase based SurA activity assay was performed in SurA Activity Assay Buffer (40 mM HEPES pH 7.4, 20 mM MgSO4, 0.5 g/I BSA). SurA aliquots were thawn at RT, activated by mild heat treatment and cooled down to RT for 10 min. SurA concentration was adjusted to 1.6 μM in Activity Assay Buffer (protein solution). Solution A containing 10 mM ATP as well as 0.3 mM Luciferin (Promega Beetle Luciferin, Potassium Salt) in water was prepared. Luciferase working solution was prepared by diluting 1 ml Luciferase working stock (100 nM) with 9 ml assay buffer. 33 μl of the protein solution were added to every 2nd row of a well of a 384-well PS, white, flat bottom plate. […] Subsequently, 2 μl of compound in DMSO were added in quadruplicates (4 wells each of protein solution and buffer controls). These compound solutions could contain either various compounds or different dilutions of the same compound allowing screening inhibitor activity in a dose dependent manner. After compound addition, plates were incubated 15 min at RT. After this incubation, 5 μl of Luciferase working solution were added to each well. […] Subsequently, the assay plate was cooled for 5 min at 4° C. followed by 10 min incubation at RT prior to luminescence measurement. Luminescence was measured in a TECAN infinite M200 pro plate reader for each well individually after injection of 10 μl Solution A.

T1 sequence (P0ABZ6 21-428): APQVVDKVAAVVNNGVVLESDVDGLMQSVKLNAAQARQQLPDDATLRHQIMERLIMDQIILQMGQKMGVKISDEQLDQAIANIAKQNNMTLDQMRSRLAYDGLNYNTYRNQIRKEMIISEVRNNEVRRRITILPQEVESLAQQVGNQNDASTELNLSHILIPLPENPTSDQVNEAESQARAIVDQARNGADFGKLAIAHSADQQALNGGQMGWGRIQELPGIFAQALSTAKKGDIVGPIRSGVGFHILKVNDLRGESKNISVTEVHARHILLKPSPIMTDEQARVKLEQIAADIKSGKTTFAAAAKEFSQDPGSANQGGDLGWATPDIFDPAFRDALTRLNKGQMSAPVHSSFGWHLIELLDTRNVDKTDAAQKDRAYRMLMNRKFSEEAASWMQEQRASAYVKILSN
Sequence of luciferase (P08659 whole entry): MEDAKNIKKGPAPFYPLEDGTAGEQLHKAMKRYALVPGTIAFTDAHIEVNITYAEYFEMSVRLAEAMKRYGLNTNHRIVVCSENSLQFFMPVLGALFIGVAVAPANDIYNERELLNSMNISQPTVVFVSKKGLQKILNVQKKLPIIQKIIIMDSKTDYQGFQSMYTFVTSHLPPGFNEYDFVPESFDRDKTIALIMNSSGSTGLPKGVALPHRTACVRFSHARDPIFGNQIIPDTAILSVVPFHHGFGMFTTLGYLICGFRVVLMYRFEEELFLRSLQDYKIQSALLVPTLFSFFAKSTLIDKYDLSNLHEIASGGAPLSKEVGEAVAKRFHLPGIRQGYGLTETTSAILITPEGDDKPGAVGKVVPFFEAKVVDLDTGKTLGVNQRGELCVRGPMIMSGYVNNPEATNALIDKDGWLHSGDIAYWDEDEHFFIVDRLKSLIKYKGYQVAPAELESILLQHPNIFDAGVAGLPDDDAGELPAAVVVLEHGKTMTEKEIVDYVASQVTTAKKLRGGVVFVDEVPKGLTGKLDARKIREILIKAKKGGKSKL

Compound | IC50 ([1]; 8-point curves 100-0.39 μM, 50 nM SurA, read-out: MST pIC50 (converted)) | MST score [1] | MST (Kd in mM) [2] | MST score (Re-evaluation Tuebingen) [2] | MST (KD) ([2]; resynthesized compounds) | Primary Assay ICmax ([3]; QHL-10 derivatives, dose response up to 125 μM, n/d: no signal detected) | Primary Assay Amplitude ([3]; amplitude of signal, n/d: no signal detected) | primary assay SurA [3] | nanoDSF pH 7.4 Ti#1 [4] | nanoDSF pH 7.4 Ti#2 [4] | nanoDSF pH 5 Ti#1 [4] | nanoDSF pH 5 Ti#2 [4] | Thermal stability of SurA as detected by nanoDSF [4] | primary assay Luciferase [5] | Kd ([2]; read-out: MST (Kd in mM)) | Kd ([2]; resynthesized compounds, read-out: MST (KD))
NC(=O)c1nc(Cc2ccc(OCC(=O)O)cc2)[nH]c1NC(=O)c1ccc(-c2ccccc2)cc1 [Compound 2a, 2-(4-((5-([1,1′-biphenyl]-4-carboxamido)-4-carbamoyl-1H-imidazol-2-yl)methyl)phenoxy)acetic acid] | 39.8 µM | 1 | binding | 2 | binding | 4 µM | high | + | none | − | + | − | affected the thermal stability of SurA | − |  | 
CN(C)c1ccc(-c2nc3cc(NC(=O)Cn4cc5ccccc5n4)ccc3[nH]2)cc1 [QHL-24] |  | 1 |  | inconclusive | binding |  |  | + | none | − | none | + | affected the thermal stability of SurA | − | 0.02 to 0.03 mM | 0.02 to 0.03 mM
